Measured values taken from PubChem BioAssay (NCI).
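A five-concentration, 48-hour dose response in 96-well plates underlies each endpoint, interpolated linearly between surrounding concentrations. The concentration for full growth arrest is given as TGI.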

Legend:
Assay in all cases: inhibition of tumour cell growth, NCI panel, 48 h
MDA-MB-231 breast = test system: MDA-MB-231 breast
HS 578T breast = test system: HS 578T breast
LOX IMVI melanoma = test system: LOX IMVI melanoma
UO-31 renal = test system: UO-31 renal
CAKI-1 renal = test system: CAKI-1 renal
SN12C renal = test system: SN12C renal
HCT-15 colon = test system: HCT-15 colon
COLO 205 colon = test system: COLO 205 colon
A498 renal = test system: A498 renal
SR leukemia = test system: SR leukemia
HOP-62 NSCLC = test system: HOP-62 NSCLC
OVCAR-5 ovarian = test system: OVCAR-5 ovarian
HOP-92 NSCLC = test system: HOP-92 NSCLC
HT29 colon = test system: HT29 colon
HL-60(TB) leukemia = test system: HL-60(TB) leukemia
NCI-H23 lung = test system: NCI-H23 lung
MALME-3M melanoma = test system: MALME-3M melanoma
SK-MEL-28 melanoma = test system: SK-MEL-28 melanoma
DU-145 prostate = test system: DU-145 prostate
CCRF-CEM leukemia = test system: CCRF-CEM leukemia
U251 CNS = test system: U251 CNS
KM12 colon = test system: KM12 colon
NCI/ADR-RES ovarian = test system: NCI/ADR-RES ovarian
SF-295 CNS = test system: SF-295 CNS
NCI-H460 lung = test system: NCI-H460 lung
SK-MEL-2 melanoma = test system: SK-MEL-2 melanoma
SK-OV-3 ovarian = test system: SK-OV-3 ovarian
OVCAR-8 ovarian = test system: OVCAR-8 ovarian
IGROV1 ovarian = test system: IGROV1 ovarian
MDA-MB-435 = test system: MDA-MB-435
HCC-2998 colon = test system: HCC-2998 colon
UACC-62 melanoma = test system: UACC-62 melanoma
HCT-116 colon = test system: HCT-116 colon
SW-620 colon = test system: SW-620 colon
ACHN renal = test system: ACHN renal
NCI-H226 lung = test system: NCI-H226 lung
OVCAR-4 ovarian = test system: OVCAR-4 ovarian
K-562 leukemia = test system: K-562 leukemia
T-47D breast = test system: T-47D breast
EKVX NSCLC = test system: EKVX NSCLC
MDA-N = test system: MDA-N
A549 NSCLC = test system: A549 NSCLC
NCI-H522 lung = test system: NCI-H522 lung
BT-549 breast = test system: BT-549 breast
OVCAR-3 ovarian = test system: OVCAR-3 ovarian
PC-3 prostate = test system: PC-3 prostate
TK-10 renal = test system: TK-10 renal
UACC-257 melanoma = test system: UACC-257 melanoma
SNB-19 CNS = test system: SNB-19 CNS
MOLT-4 leukemia = test system: MOLT-4 leukemia
RPMI-8226 leukemia = test system: RPMI-8226 leukemia
786-0 renal = test system: 786-0 renal
SK-MEL-5 melanoma = test system: SK-MEL-5 melanoma
SF-539 CNS = test system: SF-539 CNS
RXF 393 renal = test system: RXF 393 renal
M14 melanoma = test system: M14 melanoma
SNB-75 CNS = test system: SNB-75 CNS
MCF7 breast = test system: MCF7 breast
SF-268 CNS = test system: SF-268 CNS

## CC(C)NC(=O)OCc1c(COC(=O)NC(C)C)c(-c2ccc[n+](COC(=O)C(C)C)c2)n2c1CCC2
MDA-MB-231 breast
  TGI: > 100 µM
HS 578T breast
  TGI: > 100 µM
LOX IMVI melanoma
  TGI: > 100 µM
UO-31 renal
  TGI: > 100 µM
CAKI-1 renal
  TGI: 74.2 µM
SN12C renal
  TGI: > 100 µM
HCT-15 colon
  TGI: > 100 µM
COLO 205 colon
  TGI: > 100 µM
A498 renal
  TGI: 61.2 µM
SR leukemia
  TGI: 97.4 µM
HOP-62 NSCLC
  TGI: > 100 µM
OVCAR-5 ovarian
  TGI: > 100 µM
HOP-92 NSCLC
  TGI: > 94.6 µM
HT29 colon
  TGI: > 100 µM
HL-60(TB) leukemia
  TGI: > 59.4 µM
NCI-H23 lung
  TGI: > 100 µM
MALME-3M melanoma
  TGI: > 100 µM
SK-MEL-28 melanoma
  TGI: > 100 µM
DU-145 prostate
  TGI: > 100 µM
CCRF-CEM leukemia
  TGI: > 91.2 µM
U251 CNS
  TGI: > 100 µM
KM12 colon
  TGI: > 100 µM
NCI/ADR-RES ovarian
  TGI: > 100 µM
SF-295 CNS
  TGI: > 100 µM
NCI-H460 lung
  TGI: > 100 µM
SK-MEL-2 melanoma
  TGI: > 100 µM
SK-OV-3 ovarian
  TGI: > 100 µM
OVCAR-8 ovarian
  TGI: > 100 µM
IGROV1 ovarian
  TGI: > 100 µM
MDA-MB-435
  TGI: > 100 µM
HCC-2998 colon
  TGI: > 100 µM
UACC-62 melanoma
  TGI: > 100 µM
HCT-116 colon
  TGI: > 100 µM
SW-620 colon
  TGI: > 100 µM
ACHN renal
  TGI: > 100 µM
NCI-H226 lung
  TGI: > 100 µM
OVCAR-4 ovarian
  TGI: > 100 µM
K-562 leukemia
  TGI: > 100 µM
T-47D breast
  TGI: > 100 µM
EKVX NSCLC
  TGI: > 100 µM
MDA-N
  TGI: > 100 µM
A549 NSCLC
  TGI: > 100 µM
NCI-H522 lung
  TGI: 91.4 µM
BT-549 breast
  TGI: > 100 µM
OVCAR-3 ovarian
  TGI: > 100 µM
PC-3 prostate
  TGI: > 100 µM
TK-10 renal
  TGI: > 100 µM
UACC-257 melanoma
  TGI: > 100 µM
SNB-19 CNS
  TGI: > 100 µM
MOLT-4 leukemia
  TGI: > 79.3 µM
RPMI-8226 leukemia
  TGI: > 100 µM
786-0 renal
  TGI: > 100 µM
SK-MEL-5 melanoma
  TGI: > 100 µM
SF-539 CNS
  TGI: > 83.3 µM
RXF 393 renal
  TGI: > 89.6 µM
M14 melanoma
  TGI: > 100 µM
SNB-75 CNS
  TGI: > 100 µM
MCF7 breast
  TGI: > 100 µM
SF-268 CNS
  TGI: > 100 µM

## COc1ccc(-c2c(C#N)c(=O)nc(SC)n2C2OCC(OC(C)=O)C(OC(C)=O)C2OC(C)=O)cc1 (stereo not drawn)
MDA-MB-231 breast
  TGI: > 100 µM
HS 578T breast
  TGI: > 100 µM
LOX IMVI melanoma
  TGI: > 100 µM
UO-31 renal
  TGI: > 100 µM
CAKI-1 renal
  TGI: > 100 µM
SN12C renal
  TGI: > 100 µM
HCT-15 colon
  TGI: > 100 µM
COLO 205 colon
  TGI: > 100 µM
A498 renal
  TGI: > 100 µM
SR leukemia
  TGI: 53.3 µM
HOP-62 NSCLC
  TGI: > 100 µM
OVCAR-5 ovarian
  TGI: > 100 µM
HOP-92 NSCLC
  TGI: > 100 µM
HT29 colon
  TGI: > 100 µM
HL-60(TB) leukemia
  TGI: > 100 µM
NCI-H23 lung
  TGI: > 100 µM
MALME-3M melanoma
  TGI: > 100 µM
SK-MEL-28 melanoma
  TGI: > 100 µM
DU-145 prostate
  TGI: > 100 µM
CCRF-CEM leukemia
  TGI: > 100 µM
U251 CNS
  TGI: > 100 µM
KM12 colon
  TGI: > 100 µM
NCI/ADR-RES ovarian
  TGI: > 100 µM
SF-295 CNS
  TGI: > 100 µM
NCI-H460 lung
  TGI: > 100 µM
SK-MEL-2 melanoma
  TGI: > 100 µM
SK-OV-3 ovarian
  TGI: > 100 µM
OVCAR-8 ovarian
  TGI: > 100 µM
IGROV1 ovarian
  TGI: > 100 µM
MDA-MB-435
  TGI: > 100 µM
HCC-2998 colon
  TGI: > 100 µM
UACC-62 melanoma
  TGI: > 100 µM
HCT-116 colon
  TGI: > 100 µM
SW-620 colon
  TGI: > 100 µM
ACHN renal
  TGI: > 100 µM
NCI-H226 lung
  TGI: > 100 µM
OVCAR-4 ovarian
  TGI: > 100 µM
K-562 leukemia
  TGI: > 100 µM
T-47D breast
  TGI: > 100 µM
EKVX NSCLC
  TGI: > 100 µM
MDA-N
  TGI: > 100 µM
A549 NSCLC
  TGI: > 100 µM
NCI-H522 lung
  TGI: > 100 µM
BT-549 breast
  TGI: > 100 µM
OVCAR-3 ovarian
  TGI: > 100 µM
PC-3 prostate
  TGI: > 100 µM
TK-10 renal
  TGI: > 100 µM
UACC-257 melanoma
  TGI: > 100 µM
SNB-19 CNS
  TGI: > 100 µM
MOLT-4 leukemia
  TGI: > 100 µM
RPMI-8226 leukemia
  TGI: > 100 µM
786-0 renal
  TGI: > 100 µM
SK-MEL-5 melanoma
  TGI: > 100 µM
SF-539 CNS
  TGI: > 100 µM
RXF 393 renal
  TGI: > 100 µM
M14 melanoma
  TGI: > 100 µM
SNB-75 CNS
  TGI: > 100 µM
MCF7 breast
  TGI: > 100 µM
SF-268 CNS
  TGI: > 100 µM
